According to patent publication US5486597A, “Tetrapeptide derivatives and analogues” (James Black Foundation Limited, priority 1990, dated 1996):
Non-standard residues stand in square brackets, D forms with d. Residues, ends and D or L forms follow the SMILES beside them. *: point of attachment. Trp(1-Me) = Cn1cc(C[C@H](N)C(=O)O)c2ccccc21; Phe(4-Cl) = N[C@@H](Cc1ccc(Cl)cc1)C(=O)O; αMeW = C[C@](N)(Cc1c[nH]c2ccccc12)C(=O)O; 2Nal = N[C@@H](Cc1ccc2ccccc2c1)C(=O)O; Adoc = O=C(OC12CC3CC(CC(C3)C1)C2)*; Boc = CC(C)(C)OC(=O)*; For = O=C*

Assays:
gastrin receptor = molecular target: T1, gastrin receptor (Mus musculus, UniProt P56481); experiment: mouse stomach assay for gastrin activity (isolated stomach, acid secretion); type: cell-based; conditions: for pKB mouse stomach: isolated mouse stomach assay, gastrin antagonism, standard errors less than 5%; for Acid seretion at 10^-5 M test compound, relative to pentagastrin (%): mouse stomach, NS = not significant
T1 construct: assayed for gastrin activity using the mouse stomach assay; from tissue; host or cells: isolated mouse stomach
T1 sequence (P56481 1-453): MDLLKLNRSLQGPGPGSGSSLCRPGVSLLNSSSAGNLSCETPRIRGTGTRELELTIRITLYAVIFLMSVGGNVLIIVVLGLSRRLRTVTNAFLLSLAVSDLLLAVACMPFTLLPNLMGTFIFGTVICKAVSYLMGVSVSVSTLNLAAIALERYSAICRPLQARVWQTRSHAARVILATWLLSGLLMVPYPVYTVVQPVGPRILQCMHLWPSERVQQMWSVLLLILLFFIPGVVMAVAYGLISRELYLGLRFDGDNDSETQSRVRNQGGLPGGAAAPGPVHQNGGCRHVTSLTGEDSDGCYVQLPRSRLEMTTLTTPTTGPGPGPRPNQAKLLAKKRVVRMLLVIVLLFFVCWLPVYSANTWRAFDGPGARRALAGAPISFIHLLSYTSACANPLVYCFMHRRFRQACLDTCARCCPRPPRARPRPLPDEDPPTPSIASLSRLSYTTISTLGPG
Protocol: The compounds were assayed for gastrin activity using the mouse stomach assay as described by Black, J. W. and Shankley, N. P., Br. J. Pharmacol., 86, 571-579, (1985), and also in the guinea-pig fundus assay, as follows: […]

[1] = molecular target: T2, cholecystokinin receptors (Cavia porcellus, UniProt Q63931); experiment: CCK-antagonist activity in isolated guinea-pig gall-bladder strip preparations; type: cell-based; conditions: guinea-pig gall-bladder strips; CCK-8 as agonist; test compound incubated for 60 minutes; standard errors less than 5%
T2 construct: Isolated, strip preparations were prepared from gall-bladders removed from male Dunkin-Hartley guinea-pigs; from tissue; host or cells: guinea-pig gall-bladder strips
T2 sequence (Q63931 1-430): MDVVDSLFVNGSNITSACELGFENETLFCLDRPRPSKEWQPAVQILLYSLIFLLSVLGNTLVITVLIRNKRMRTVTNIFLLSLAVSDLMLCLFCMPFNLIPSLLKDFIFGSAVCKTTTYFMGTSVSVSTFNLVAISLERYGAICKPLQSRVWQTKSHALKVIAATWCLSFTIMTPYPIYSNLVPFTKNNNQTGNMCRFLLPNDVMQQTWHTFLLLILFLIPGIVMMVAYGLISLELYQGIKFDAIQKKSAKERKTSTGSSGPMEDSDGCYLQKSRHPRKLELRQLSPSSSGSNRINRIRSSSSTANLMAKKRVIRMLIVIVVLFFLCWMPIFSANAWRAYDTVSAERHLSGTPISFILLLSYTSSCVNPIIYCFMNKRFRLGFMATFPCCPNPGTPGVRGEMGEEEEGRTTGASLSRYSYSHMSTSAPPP
Protocol: The compounds of the invention were also assayed for CCK-antagonist activity as follows:
Isolated, strip preparations were prepared from gall-bladders removed from male Dunkin-Hartley guinea-pigs (250-500 g body weight) according to the method of La Morte, W. W., et al., J.P.E.T., 217, (3), 638-644 (1981).
The complete gall-bladder is removed and opened along the longitudinal axis. Strips measuring 3 mm in the longitudinal axis and 1 mm in the transverse axis are cut and then tied with cotton to stainless steel wires. The preparation is connected to a GRASS FTO3 isometric transducer under an initial loading tension of 1 g and is immersed in 20 mls of Krebs solution maintained at 37° C. and gassed with 95% O2 /5% CO2. The Krebs solution is as detailed above in connection with the fundus assay, except that the Ca^2+ concentration is decreased to 0.5 mM. After 30 mins the preparation is washed. Drug addition begins after an initial 90 min stabilisation period. Responses are measured as changes in tension from that immediately prior to any drug addition. Single cumulative agonist concentration-effect curves, using CCK-8 as agonist, are obtained on each preparation in the absence and presence of test compound which has been incubated for 60 minutes. The antagonist activity of the test compound is estimated and expressed as the negative logarithm (base 10) of the equilibrium dissociation constants (pK8) using the modifications of standard competitive analysis described by Black et al., Br. J. Pharmacol.,86,571-579, (1985) and Shankley et al., Br. J. Pharmacol.,94,264-274 (1988).

In the case of `CC(C)(C)OC(=O)N[C@@H](Cc1c[nH]c2ccccc12)C(=O)N[C@@H](Cc1ccc2ccccc2c1)C(=O)N[C@@H](CC(=O)O)C(=O)N[C@@H](Cc1ccc(Cl)cc1)C(N)=O` [Example 11, N-t-Butyloxycarbonyl-L-tryptophyl-L-3-(2-naphthyl)alanyl-L-aspartyl-L-(4-chlorophenylalanin)amide] (Boc-W[2Nal]D[Phe(4-Cl)]-NH2), the pKB mouse stomach (gastrin receptor) is reported as 6.6, the “Acid seretion at 10^-5 M test compound, relative to pentagastrin (%)” value (from here on “Acid seretion … relative to pentagastrin (%)”) (gastrin receptor) is reported as 60% and the pKB [1] is reported as 5.9.

With `COc1ccc(CCNC(=O)[C@H](CC(=O)O)NC(=O)[C@H](Cc2ccc3ccccc3c2)NC(=O)[C@H](Cc2c[nH]c3ccccc23)NC(=O)OC23CC4CC(CC(C4)C2)C3)cc1` [Example 14, N-1-Adamantyloxycarbonyl-L-tryptophyl-L-3-(2-naphthyl)alanyl-L-aspartyl-4-methoxyphenethylamide] the pKB [1] was 6.0.

`CC(C)(C)OC(=O)N[C@H](Cc1c[nH]c2ccccc12)C(=O)N[C@@H](Cc1ccc2ccccc2c1)C(=O)N[C@@H](CC(=O)O)C(=O)N[C@@H](Cc1ccccc1)C(N)=O` [Example 22, N-t-Butyloxycarbonyl-D-tryptophyl-L-3-(2-naphthyl)alanyl-L-aspartyl-L-phenylalaninamide] (Boc-[dW][2Nal]DF-NH2) gave a Kb [1] of 631 nM.

In the case of `CC(C)(C)OC(=O)N[C@@H](Cc1c[nH]c2ccccc12)C(=O)N[C@@H](Cc1ccc2ccccc2c1)C(=O)N[C@@H](CC(=O)O)C(=O)NCC12CC3CC(CC(C3)C1)C2` [Example 35, N-t-Butyloxycarbonyl-L-tryptophyl-L-3-(2-naphthyl)alanyl-L-aspartyl-1-adamantylmethylamide], the pKB [1] is reported as 5.8.

In the case of `CNC(=O)[C@H](Cc1ccccc1)NC(=O)[C@H](CC(=O)O)NC(=O)[C@H](Cc1ccc2ccccc2c1)NC(=O)[C@H](Cc1c[nH]c2ccccc12)NC(=O)OC(C)(C)C` [Example 5, N-t-Butyloxycarbonyl-L-tryptophyl-L-3-(2-naphthyl)alanyl-L-aspartyl-L-phenylalanyl-(N-methyl)amide] (Boc-W[2Nal]DF-NHMe), the pKB mouse stomach (gastrin receptor) is reported as 5.6, the “Acid seretion … relative to pentagastrin (%)” value (gastrin receptor) is reported as 23% and the pKB [1] is reported as 5.4.

With `COc1ccc(CCNC(=O)[C@H](CC(=O)O)NC(=O)[C@H](Cc2ccc3ccccc3c2)N(C)C(=O)[C@H](Cc2c[nH]c3ccccc23)NC(=O)OC(C)(C)C)cc1` [Example 59, N-t-Butyloxycarbonyl-L-tryptophyl-N-methyl-L-3-(2-naphthyl)alanyl-L-aspartyl-4-methoxyphenethylamide] the pKB mouse stomach (gastrin receptor) was 5.3, the “Acid seretion … relative to pentagastrin (%)” value (gastrin receptor) was 20% and the pKB [1] was 6.7.

For `NC(=O)[C@H](Cc1ccccc1)NC(=O)[C@H](CC(=O)O)NC(=O)[C@H](Cc1ccc2ccccc2c1)NC(=O)[C@H](Cc1c[nH]c2ccccc12)NC(=O)OC12CC3CC(CC(C3)C1)C2` [Example 13, N-1-Adamantyloxycarbonyl-L-tryptophyl-L-3-(2-naphthyl)alanyl-L-aspartyl-L-phenylalaninamide] (Adoc-W[2Nal]DF-NH2), the Kb [1] was 1260 nM.

With `COc1cc(OC)c(CCNC(=O)[C@H](CC(=O)O)NC(=O)[C@H](Cc2ccc3ccccc3c2)NC(=O)[C@H](Cc2c[nH]c3ccccc23)NC(=O)OC(C)(C)C)c(OC)c1` [Example 55, N-t-Butyloxycarbonyl-L-tryptophyl-L-3-(2-naphthyl)alanyl-L-aspartyl-2,4,6-trimethoxyphenethylamide] the pKB [1] was 6.4.

`NC(=O)[C@H](Cc1ccccc1)NC(=O)[C@H](CC(=O)O)NC(=O)[C@H](Cc1ccc2ccccc2c1)NC(=O)Cc1c[nH]c2ccccc12` [Example 20, Indole-3-acetamido-L-3-(2-naphthyl)alanyl-L-aspartyl-L-phenylalaninamide] was tested, and the pKB mouse stomach (gastrin receptor) was 6.2, the “Acid seretion … relative to pentagastrin (%)” value (gastrin receptor) was 33% and the pKB [1] was 6.7.

`CC(C)(C)OC(=O)N[C@@](C)(Cc1c[nH]c2ccccc12)C(=O)N[C@@H](Cc1ccc2ccccc2c1)C(=O)N[C@@H](CC(=O)O)C(=O)N[C@@H](Cc1ccccc1)C(N)=O` [Example 17, N-t-Butyloxycarbonyl-a-methyl-tryptophyl-L-3-(2-naphthyl)alanyl-L-aspartyl-L-phenylalaninamide] (Boc-[αMeW][2Nal]DF-NH2) was tested, and the pKB mouse stomach (gastrin receptor) was 5.9, the “Acid seretion … relative to pentagastrin (%)” value (gastrin receptor) was 44% and the pKB [1] was 5.5.

“N-t-Butyloxycarbonyl-L-tryptophyl-L-3-(2-naphthyl)alanyl-L-aspartyl-2,4-dichlorophenethylamide [Example 37]” showed a pKB [1] of 6.4.

`Cn1cc(C[C@H](NC(=O)OC(C)(C)C)C(=O)N[C@@H](Cc2ccc3ccccc3c2)C(=O)N[C@@H](CC(=O)O)C(=O)N[C@@H](Cc2ccccc2)C(N)=O)c2ccccc21` [Example 45, N-t-Butyloxycarbonyl-L-N^in-methyltryptophyl-L-3-(2-naphthyl)alanyl-L-aspartyl-L-phenylalaninamide] (Boc-[Trp(1-Me)][2Nal]DF-NH2) was tested, and the pKB [1] was 6.1.

Work on `NC(=O)[C@H](Cc1ccccc1)NC(=O)[C@H](CC(=O)O)NC(=O)[C@H](Cc1ccc2ccccc2c1)NC(=O)CCc1c[nH]c2ccccc12` [Example 21, Indole-3-propionamido-L-3-(2-naphthyl)alanyl-L-aspartyl-L-phenylalaninamide] yielded a pKB [1] of 6.2.

`CC(C)(C)OC(=O)N[C@@H](Cc1c[nH]c2ccccc12)C(=O)N[C@@H](Cc1ccc2ccccc2c1)C(=O)N[C@@H](CC(=O)O)C(=O)NCCc1ccc2c(c1)CCCC2` [Example 43, N-t-Butyloxycarbonyl-L-tryptophyl-L-3-(2-naphthyl)alanyl-L-aspartyl-2-(5,6,7,8-tetrahydronaphthyl)ethylamide] gave a pKB [1] of 6.5.

For `CC(C)(C)OC(=O)N[C@@H](Cc1cn(C=O)c2ccccc12)C(=O)N[C@@H](Cc1ccc2ccccc2c1)C(=O)N[C@@H](CC(=O)O)C(=O)N[C@@H](Cc1ccccc1)C(N)=O` [Example 60, N-t-Butyloxycarbonyl-L-N^in-formyltryptophyl-L-3-(2-naphthyl)alanyl-L-aspartyl-L-phenylalaninamide] (Boc-W(For)[2Nal]DF-NH2), the pKB mouse stomach (gastrin receptor) was 5.3, the “Acid seretion … relative to pentagastrin (%)” value (gastrin receptor) was 20% and the pKB [1] was 6.4.

`CC(C)(C)OC(=O)N[C@@H](Cc1c[nH]c2ccccc12)C(=O)N[C@@H](Cc1ccc2ccccc2c1)C(=O)N[C@@H](CC(=O)O)C(=O)NCCc1cccc(C(F)(F)F)c1` [Example 50, N-t-Butyloxycarbonyl-L-tryptophyl-L-3-(2-naphthyl)alanyl-L-aspartyl-3-trifluoromethylphenethylamide] gave a pKB [1] of 6.1.

`CC(C)(C)OC(=O)N[C@@H](Cc1c[nH]c2ccccc12)C(=O)N[C@@H](Cc1ccc2ccccc2c1)C(=O)N[C@@H](CC(=O)O)C(=O)NCCc1ccc(C(F)(F)F)cc1` [Example 28, N-t-Butyloxycarbonyl-L-tryptophyl-L-3-(2-naphthyl)alanyl-L-aspartyl-4-trifluoromethylphenethylamide] was tested, and the pKB [1] was 6.4.

In the case of `CC(C)(C)OC(=O)N[C@@H](Cc1c[nH]c2ccccc12)C(=O)N[C@@H](Cc1ccc2ccccc2c1)C(=O)N[C@@H](CC(=O)O)C(=O)NC1Cc2ccccc2C1` [Example 53, N-t-Butyloxycarbonyl-L-tryptophyl-L-3-(2-naphthyl)alanyl-L-aspartyl-2-indanylamide], the pKB [1] is reported as 6.6.
